Earlier results in patent US9848760B2, “Devices for continual monitoring and introduction of gastrointestinal microbes” (Gearbox, LLC, priority 2009, dated 2017).

Tests used:
[1] = test system: enterotoxigenic Escherichia coli (ETEC); conditions: ETEC infection, MIC90 level, FIG. 17
[2] = infant stool, associated with treatment
[3] = infant treated at 4 months of age, relative to reference microbial profile at 1 month of age

Row | Compound | abundance of bacilli (intestinal microbes; [2]) | abundance of gamma proteobacteria (intestinal microbes; [2]) | bacterial composition in stool samples (intestinal microbes; [3]) | total bacterial density in stool samples (intestinal microbes; [3]) | MIC values [1]
1 | CC1(C)S[C@@H]2[C@H](NC(=O)[C@H](N)c3ccc(O)cc3)C(=O)N2[C@H]1C(=O)O [amoxicillin] | increases | reductions | altered | decrease | –
2 | CC1(C)S[C@@H]2[C@H](NC(=O)[C@H](N)c3ccccc3)C(=O)N2[C@H]1C(=O)O [AMP, ampicillin] | – | – | – | – | high
3 | TMP/sulfamethoxazole [SXT] | – | – | – | – | high
4 | COc1cc(Cc2cnc(N)nc2N)cc(OC)c1OC [TMP, trimethoprim] | – | – | – | – | high
